We go through 19 compounds from patent US7649002B2, “(3,5-dimethylpiperidin-1yl)(4-phenylpyrrolidin-3-yl)methanone derivatives as MCR4 agonists” (Pfizer Inc, priority 2004, dated 2010).

A word on the EC50: it is the concentration needed to bring the measured effect to its halfway point.

Counter-ions that a name gives are not always drawn.

The target in the first experiment is T1, human MCR4 receptor (Homo sapiens, UniProt P32245).
T1 construct: expressed in transfected cells
T1 sequence (P32245 whole entry): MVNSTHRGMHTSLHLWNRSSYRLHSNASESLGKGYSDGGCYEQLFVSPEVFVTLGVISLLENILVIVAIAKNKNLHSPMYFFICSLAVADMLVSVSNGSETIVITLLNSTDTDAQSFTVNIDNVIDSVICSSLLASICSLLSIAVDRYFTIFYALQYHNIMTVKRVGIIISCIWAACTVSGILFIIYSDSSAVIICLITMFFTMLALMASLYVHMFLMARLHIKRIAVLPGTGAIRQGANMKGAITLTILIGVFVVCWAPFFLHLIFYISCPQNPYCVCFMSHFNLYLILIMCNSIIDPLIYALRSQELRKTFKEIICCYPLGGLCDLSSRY
The experiment is described as follows: MCR4 improved functional assay (Protocol E): CHO-K1-MC4R-CRE-β-lactamase reporter. It counts as cell-based. The conditions noted are these: Protocols C or E, read-out: functional potency at the MC4 receptor (EC50). The source says: (ii) MCR5 Standard Functional Assay Methodology and MCR4 Improved Functional Assay Methodology [Assay Protocol D and E Respectively] […] These cell lines were engineered using protocols akin to those outlined by Zaccolo et al (Zaccolo, M., (2000) Nature, 2(1); 25-29). Compound-induced activation of the MCR5 or MCR4 receptors in these two cell lines stimulated the production, and intracellular accumulation, of the enzyme β-lactamase. The quantity of β-lactamase enzyme produced was directly proportional to the degree to which the test compound activated the MCR5 or MCR4 receptors present on these cells and was quantified using the P-lactamase gene reporter analysis kit that is commercially available from Invitrogen Life Technologies. An in-depth description of this technology and assay protocols are available from the Invitrogen web site (www.invitrogen.com). The protocol listed below provides a summary of that assay methodology. The quantity of β-lactamase enzyme produced by compound-induced activation of the MCR5 or MCR4 receptors expressed in these cell lines was quantified using a LjI Biosystems Analyst™ HT 96.384 plate reader set to excite at a wave length of 405 nm, and measure the energy emitted at wave lengths of 450 nm and 530 nm. Cellular responses were quantified by dividing the measured energy emitted at a wavelength of 450 nm by the measured energy emitted at a wavelength of 530 nm. […] CCF4-AM was dissolved in 100% DMSO to give a final solution concentration of 1 mM. This solution was termed Solution A. Probenecid was dissolved in 200 mM NaOH to give a final solution concentration of 200 mM. This solution was termed Solution D. Composition of the β-lactamase assay dye solution: for 1072 μL of assay dye solution combine: 12 μL of Solution A, 60 μL of Solution B, 925 μL of Solution C and 75 μL of Solution D. […] Cells were grown in T225 vent cap flasks containing 50 ml of growth medium and maintained in a cell incubator at a temperature of 37° C. and in an environment containing 5% CO2. The composition of the growth medium for the CHO-K1-MC5R-CRE-β-lactamase was 90% v/v DMEM supplemented with; Glutamax-1, 25 mM HEPES, 10% v/v foetal calf serum (FCS), 1 mM sodium pyruvate, 0.1 mM non essential amino acids and 800 μg/ml genetic in. For the CHO-K1-MC4R-CRE-β-lactamase this growth media was further supplemented with […] Zeocin. Cells were harvested when they reached 80-90% confluency by first removing the existing growth medium and then washing with PBS that had been pre-warmed to a temperature of 37° C. This PBS was then removed and 5 ml of cell dissociation fluid added to the flask. These cells were incubated for 5 minutes in a cell incubator set at a temperature of 37° C. and in an environment containing 5% CO2 to detach the cells. When cells were detached, pre-warmed growth media was added, the cells re-suspended and mixed gently to achieve a single cell suspension by pipetting. This cell suspension was then used for experimentation, or transferred into a new T225 flask to perpetuate the cell culture. […] For each assay the cell plates were then retuned to a cell incubator maintained at a temperature of 37° C. and in an environment containing 5% CO2 overnight before performing the assay on the second assay day. […] For the MCR4 improved functional assay methodology the solution of cyclohexamide was not added. Subsequently, 10 μL of the test compound solution was transferred to the assay plate. The assay plate was then transferred to a cell incubator, set at 37° C. and in an environment containing 5% CO2, and left for 4 hours for the MCR4 improved assay methodology, or 5 hours for the MCR5 standard assay methodology. After this incubation period the plate was removed from the incubator, 10 μL of the […] assay dye solution was added to each well and then the plate returned to the cell incubator.
On to `C[C@@H]1CN(C(=O)[C@@H]2CN(C(C)(C)C)C[C@H]2c2ccc(F)cc2F)C[C@H](C)[C@@]1(O)c1ccc(F)c(F)c1` [Example 8, (3R,4R,5S)-1-{[(3S,4R)-1-tert-Butyl-4-(2,4-difluorophenyl)pyrrolidin-3-yl]carbonyl}-4-(3,4-difluorophenyl)-3,5-dimethylpiperidin-4-ol hydrochloride], for which the EC50 was < 10 nM.
The same measure, in the same setting: in the case of `C[C@@H]1CN(C(=O)[C@@H]2CN(C(C)(C)C)C[C@H]2c2ccc(F)cc2F)C[C@H](C)[C@@]1(O)c1ccc(F)cc1` [Example 9, (3R,4R,5S)-1-{[(3S,4R)-1-tert-butyl-4-(2,4-difluorophenyl)pyrrolidin-3-yl]carbonyl}-4-(4-fluorophenyl)-3,5-dimethylpiperidin-4-ol hydrochloride] it was < 10 nM; in that of `CC(C)N1C[C@@H](C(=O)N2C[C@@H](C)[C@](O)(c3ccc(F)cc3)[C@@H](C)C2)[C@H](c2ccc(F)cc2F)C1` [Example 10, (3R,4R,5S)-1-{[(3S,4R)-4-(2,4-difluorophenyl)-1-isopropylpyrrolidin-3-yl]carbonyl}-4-(4-fluorophenyl)-3,5-dimethylpiperidin-4-ol hydrochloride], < 150 nM.
On the same count and under the same terms, as for `CCN1C[C@@H](C(=O)N2C[C@@H](C)[C@](O)(c3ccc(OC)cc3)[C@@H](C)C2)[C@H](c2ccc(F)cc2F)C1` [Example 14, (3R,4R,5S)-1-{[(3S,4R)-4-(2,4-difluorophenyl)-1-ethylpyrrolidin-3-yl]carbonyl}-4-(4-methoxyphenyl)-3,5-dimethylpiperidin-4-ol hydrochloride], the figure is < 150 nM.
On the same count and under the same terms, as for `C[C@@H]1CN(C(=O)[C@@H]2CNC[C@H]2c2ccc(F)cc2F)C[C@H](C)[C@@]1(O)c1ccc(F)cc1F` [Example 16, (3R,4R,5S)-4-(2,4-difluorophenyl)-1-{[(3S,4R)-4-(2,4-difluorophenyl)pyrrolidin-3-yl]carbonyl}-3,5-dimethylpiperidin-4-ol hydrochloride], the figure is < 150 nM.
Take `C[C@@H]1CN(C(=O)[C@@H]2CN(C(C)(C)C)C[C@H]2c2ccc(F)cc2F)C[C@H](C)[C@@]1(O)c1c(F)cccc1F` [Example 17, (3R,4R,5S)-1-[{(3S,4R)-1-tert-butyl-4-(2,4-difluorophenyl)pyrrolidin-3-yl]carbonyl}-4-(2,6-difluorophenyl)-3,5-dimethylpiperidin-4-ol hydrochloride]: the concentration giving a half-maximal response (EC50) is < 50 nM.
Same read-out and setting: as for `C[C@@H]1CN(C(=O)[C@@H]2CNC[C@H]2c2ccc(F)cc2F)C[C@H](C)[C@@]1(O)c1cccc(F)c1` [Example 20, (3R,4R,5S)-1-{[(3S,4R)-4-(2,4-difluorophenyl)pyrrolidin-3-yl]carbonyl}-4-(3-fluorophenyl)-3,5-dimethylpiperidin-4-ol hydrochloride], the figure is < 150 nM; as for `C[C@@H]1CN(C(=O)[C@@H]2CN(c3cnccn3)C[C@H]2c2ccc(F)cc2F)C[C@H](C)[C@@]1(O)c1ccccc1` [Example 33, (3R,4R,5S)-1-{[(3S,4R)-4-(2,4-Difluorophenyl)-1-pyrazin-2-ylpyrrolidin-3-yl]carbonyl}-3,5-dimethyl-4-phenylpiperidin-4-ol hydrochloride], < 150 nM.
On the same count and under the same terms, as for `C[C@@H]1CN(C(=O)[C@@H]2CN(c3cccnc3)C[C@H]2c2ccc(F)cc2F)C[C@H](C)[C@@]1(O)c1ccccc1` [Example 34, (3R,4R,5S)-1-{[(3S,4R)-4-(2,4-Difluorophenyl)-1-pyridin-3-ylpyrrolidin-3-yl]carbonyl}-3,5-dimethyl-4-phenylpiperidin-4-ol hydrochloride], the figure is < 10 nM.
As for `C[C@@H]1CN(C(=O)[C@@H]2CN(c3cncnc3)C[C@H]2c2ccc(F)cc2F)C[C@H](C)[C@@]1(O)c1ccccc1` [Example 36, (3R,4R,5S)-1-{[(3S,4R)-4-(2,4-Difluorophenyl)-1-pyrimidin-5-ylpyrrolidin-3-yl]carbonyl}-3,5-dimethyl-4-phenylpiperidin-4-ol hydrochloride], the EC50 is < 150 nM.
As for `CCC[C@@]1(O)[C@H](C)CN(C(=O)[C@@H]2CN(C(C)(C)C)C[C@H]2c2ccc(F)cc2F)C[C@@H]1C` [Example 40, (3R,4R,5S)-1-{[(3S,4R)-1-tert-Butyl-4-(24-difluorophenyl)pyrrolidin-3-yl]carbonyl}-3,5-dimethyl-4-propylpiperidin-4-ol hydrochloride], the concentration for a half-maximal effect (EC50) was < 150 nM.
Turning to `C[C@@H]1CN(C(=O)[C@@H]2CN(c3ccncn3)C[C@H]2c2ccc(F)cc2F)C[C@H](C)[C@@]1(O)c1ccccc1` [Example 42, (3R,4R,5S)-1-{[(3S,4R)-4-(2,4-difluorophenyl)-1-pyrimidin-4-ylpyrrolidin-3-yl]carbonyl}-3,5-dimethyl-4-phenylpiperidin-4-ol hydrochloride], the EC50 was < 10 nM.
The same measure, in the same setting: in the case of `C[C@@H]1CN(C(=O)[C@@H]2CN(c3ccncn3)C[C@H]2c2ccc(F)cc2F)C[C@H](C)[C@@]1(O)c1ccccn1` [Example 44, (3R,4R,5S)-1-{[(3S,4R)-4-(2,4-difluorophenyl)-1-pyrimidin-4-ylpyrrolidin-3-yl]carbonyl}-3,5-dimethyl-4-pyridin-2-ylpiperidin-4-ol hydrochloride] it was < 50 nM.
On the same count and under the same terms, in the case of `C[C@@H]1CN(C(=O)[C@@H]2CN(c3cccnn3)C[C@H]2c2ccc(F)cc2F)C[C@H](C)[C@@]1(O)c1ccccn1` [Example 47, (3R,4R,5S)-1-{[(3S,4R)-4-(2,4-Difluorophenyl)-1-pyridazin-3-ylpyrrolidin-3-yl]carbonyl}-3,5-dimethyl-4-pyridin-2-ylpiperidin-4-ol hydrochloride] it was < 10 nM; in that of `C[C@@H]1CN(C(=O)[C@@H]2CNC[C@H]2c2ccc(Cl)cc2)C[C@H](C)[C@@]1(O)c1ccccc1` [Example 48, (3R,4R,5S)-1-{[(3S,4R)-4-(4-Chlorophenyl)pyrrolidin-3-yl]carbonyl}-3,5-dimethyl-4-phenylpiperidin-4-ol hydrochloride], < 150 nM.
Same read-out and setting: as for `CC(C)N1C[C@@H](C(=O)N2C[C@@H](C)[C@](O)(c3ccc(Cl)cc3)[C@@H](C)C2)[C@H](c2ccc(F)cc2F)C1` [Example 50, (3R,4R,5S)-4-(4-chlorophenyl)-1-{[(3S,4R)-4-(2,4-difluorophenyl)-1-isopropylpyrrolidin-3-yl]carbonyl}-3,5-dimethylpiperidin-4-ol hydrochloride], the figure is < 150 nM; as for `CC(C)N1C[C@@H](C(=O)N2C[C@@H](C)[C@](O)(c3ccc(F)c(F)c3)[C@@H](C)C2)[C@H](c2ccc(F)cc2F)C1` [Example 51, (3R,4R,5S)-4-(3,4-difluorophenyl)-1-{[(3S,4R)-4-(2,4-difluorophenyl)-1-isopropylpyrrolidin-3-yl]carbonyl}-3,5-dimethylpiperidin-4-ol hydrochloride], < 50 nM; as for `CC(C)N1C[C@@H](C(=O)N2C[C@@H](C)[C@](O)(c3ccc(F)cc3F)[C@@H](C)C2)[C@H](c2ccc(F)cc2F)C1` [Example 52, (3R,4R,5S)-4-(2,4-difluorophenyl)-1-{[(3S,4R)-4-(2,4-difluorophenyl)-1-isopropylpyrrolidin-3-yl]carbonyl}-3,5-dimethylpiperidin-4-ol hydrochloride], < 50 nM.

Still in this experiment, the particulars now being: Table 6, read-out: MCR4 EC50.
On to `C[C@@H]1CN(C(=O)[C@@H]2CNC[C@H]2c2ccc(F)cc2F)C[C@H](C)[C@@]1(O)c1ccc(F)cc1F` [Example 16, (3R,4R,5S)-4-(2,4-difluorophenyl)-1-{[(3S,4R)-4-(2,4-difluorophenyl)pyrrolidin-3-yl]carbonyl}-3,5-dimethylpiperidin-4-ol hydrochloride], for which the concentration giving a half-maximal response (EC50) turned out to be 54 nM.
Same read-out and setting: as for `C[C@@H]1CN(C(=O)[C@@H]2CN(c3cccnc3)C[C@H]2c2ccc(F)cc2F)C[C@H](C)[C@@]1(O)c1ccccc1` [Example 34, (3R,4R,5S)-1-{[(3S,4R)-4-(2,4-Difluorophenyl)-1-pyridin-3-ylpyrrolidin-3-yl]carbonyl}-3,5-dimethyl-4-phenylpiperidin-4-ol hydrochloride], the figure is 4 nM.

The experiment is the same for the next values; noted with them: functional potency at the MC4 receptor (EC50), Protocols C or E.
For `C[C@@H]1CN(C(=O)[C@@H]2CN(C(C)(C)C)C[C@H]2c2ccc(F)cc2F)C[C@H](C)[C@@]1(O)c1cccc(F)c1` [Example 19, (3R,4R,5S)-1-{[(3S,4R)-1-tert-butyl-4-(2,4-difluorophenyl)pyrrolidin-3-yl]carbonyl}-4-(3-fluorophenyl)-3,5-dimethylpiperidin-4-ol hydrochloride], the EC50 is < 10 nM.
